Where “and” joins values, the source holds several entries; their conditions need not be identical. Equal values may be shown once. Toxic doses and inconclusive results are not listed. Rule for the calls: active = survival T/C of 150% or more; inactive = T/C below 125% in these data.
System: CD2F1 mice, L1210 leukemia ip, survival T/C
Experiment: NCI In Vivo Anticancer Drug Screen. Data for tumor model L1210 Leukemia (intraperitoneal) in CD2F1 (CDF1) mice
Settings: higher = longer survival
Summary of the method: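 Transplantable tumor in mice; compound-treated vs vehicle-treated groups. Read-out = treated/control ratio of the measured endpoint.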

[1] = endpoint: mean survival time, dose: 100.0 mg/kg/injection, schedule: Q01DX001 (ip), vehicle: Klucel (hydroxypropylcellulose) (HPC)
[2] = endpoint: mean survival time, dose: 100.0 mg/kg/injection, schedule: Q01DX009 (ip), vehicle: saline with Tween-80
[3] = endpoint: mean survival time, dose: 200.0 mg/kg/injection, schedule: Q01DX009 (ip), vehicle: saline with Tween-80
[4] = endpoint: mean survival time, dose: 100.0 mg/kg/injection, schedule: Q04DX003 (ip), vehicle: saline with Tween-80
[5] = endpoint: mean survival time, dose: 200.0 mg/kg/injection, schedule: Q04DX003 (ip), vehicle: saline with Tween-80
[6] = endpoint: mean survival time, dose: 400.0 mg/kg/injection, schedule: Q04DX003 (ip), vehicle: saline with Tween-80
[7] = endpoint: mean survival time, dose: 100.0 mg/kg/injection, schedule: Q01DX009 (ip), vehicle: saline
[8] = endpoint: mean survival time, dose: 100.0 mg/kg/injection, schedule: Q04DX003 (ip), vehicle: saline
[9] = endpoint: mean survival time, dose: 200.0 mg/kg/injection, schedule: Q01DX009 (ip), vehicle: saline
[10] = endpoint: mean survival time, dose: 200.0 mg/kg/injection, schedule: Q04DX003 (ip), vehicle: saline
[11] = endpoint: mean survival time, dose: 400.0 mg/kg/injection, schedule: Q01DX009 (ip), vehicle: saline
[12] = endpoint: mean survival time, dose: 400.0 mg/kg/injection, schedule: Q04DX003 (ip), vehicle: saline
[13] = endpoint: mean survival time, dose: 50.0 mg/kg/injection, schedule: Q01DX009 (ip), vehicle: saline with Tween-80
[14] = endpoint: mean survival time, dose: 100.0 mg/kg/injection, schedule: Q01DX001 (ip), vehicle: saline with Tween-80

Measured: T/C

O=C(C[P+](c1ccccc1)(c1ccccc1)c1ccccc1)c1ccccc1
inactive: endpoint: mean survival time, dose: 25.0 mg/kg/injection, schedule: Q01DX001 (ip), vehicle: Klucel (hydroxypropylcellulose) (HPC) 107 % of control | endpoint: mean survival time, dose: 50.0 mg/kg/injection, schedule: Q01DX001 (ip), vehicle: Klucel (hydroxypropylcellulose) (HPC) 107 % of control | [1] 96 % of control | [2] 103 % of control | [3] 97 % of control | endpoint: mean survival time, dose: 400.0 mg/kg/injection, schedule: Q01DX009 (ip), vehicle: saline with Tween-80 103 % of control

CCOC(=O)/C(=C/c1ccc(OCc2ccccc2)cc1)P(=O)(OCC)OCC
inactive: [4] 98 % of control | [5] 96 % of control | [6] 101 % of control

NCCC(=O)CN
inactive: [7] 110 % of control | [8] 100 % of control | [9] 101 % of control | [10] 107 % of control | [11] 91 % of control | [12] 98 % of control

CCOC(=O)CCC(NC(=O)c1ccccc1NC)C(=O)OCC (centres undefined)
inactive: [4] 101 % of control | [5] 101 % of control | [6] 103 % of control

COC(C(O)C=O)C(O)C(O)CO (centres undefined)
inactive: [4] 96 % of control | [5] 101 % of control | [6] 95 % of control

Cc1ccc(-c2[nH]c(=S)[nH]c(=O)c2CCO)cc1
inactive: [4] 91 % of control | [5] 97 % of control | [6] 93 % of control

C[n+]1ccc(CCC(=O)Nc2ccccc2)cc1
inactive: [4] 100 % of control | [5] 100 % of control

CC1(CO)C2CCC(CC2)C1CO (centres undefined)
inactive: [13] 102 % of control | [14] 95 % of control | [2] 96 % of control | endpoint: mean survival time, dose: 200.0 mg/kg/injection, schedule: Q01DX001 (ip), vehicle: saline with Tween-80 94 % of control | [3] 96 % of control

COc1cc(CC#N)ccc1OCc1ccccc1
inactive: endpoint: mean survival time, dose: 12.5 mg/kg/injection, schedule: Q01DX009 (ip), vehicle: other 102 % of control | endpoint: mean survival time, dose: 25.0 mg/kg/injection, schedule: Q01DX009 (ip), vehicle: other 101 % of control | endpoint: mean survival time, dose: 25.0 mg/kg/injection, schedule: Q04DX003 (ip), vehicle: other 102 % of control | endpoint: mean survival time, dose: 50.0 mg/kg/injection, schedule: Q01DX009 (ip), vehicle: other 100 % of control | endpoint: mean survival time, dose: 50.0 mg/kg/injection, schedule: Q04DX003 (ip), vehicle: other 96 % of control | endpoint: mean survival time, dose: 100.0 mg/kg/injection, schedule: Q04DX003 (ip), vehicle: other 103 % of control

CC/C(=C(/CC)c1ccc(O)cc1)c1ccc(O)cc1
inactive: endpoint: median survival time, dose: 12.5 mg/kg/injection, schedule: Q01DX009 (sc), vehicle: steriod suspending solution 114 % of control and 105 % of control | endpoint: median survival time, dose: 25.0 mg/kg/injection, schedule: Q01DX009 (sc), vehicle: steriod suspending solution 114 % of control and 100 % of control | endpoint: median survival time, dose: 50.0 mg/kg/injection, schedule: Q01DX009 (sc), vehicle: steriod suspending solution 114 % of control and 105 % of control | endpoint: median survival time, dose: 100.0 mg/kg/injection, schedule: Q01DX009 (sc), vehicle: steriod suspending solution 100 % of control

N\C([S-])=N/N=C\C(=N/N=C(\N)[S-])C(O)C(O)C(O)CO.[Fe+2] (centres undefined)
inactive: endpoint: mean survival time, dose: 100.0 mg/kg/injection, schedule: Q01DX009 (ip), vehicle: saline sonified 91 % of control | endpoint: mean survival time, dose: 200.0 mg/kg/injection, schedule: Q01DX009 (ip), vehicle: saline sonified 92 % of control

CCOc1ccc2ccccc2c1C
inactive: endpoint: mean survival time, dose: 100.0 mg/kg/injection, schedule: Q04DX002 (ip), vehicle: other 120 % of control | endpoint: mean survival time, dose: 200.0 mg/kg/injection, schedule: Q04DX002 (ip), vehicle: other 112 % of control | endpoint: mean survival time, dose: 400.0 mg/kg/injection, schedule: Q04DX002 (ip), vehicle: other 104 % of control

CC(C)(C)C(=O)CC(=O)C(C)(C)C.CC(C)(C)C(=O)CC(=O)C(C)(C)C.CC(C)(C)C(=O)CC(=O)C(C)(C)C.[Sc]
inactive: endpoint: mean survival time, dose: 50.0 mg/kg/injection, schedule: Q04DX003 (ip), vehicle: saline with Tween-80 94 % of control | [4] 94 % of control and 100 % of control | [5] 97 % of control and 104 % of control | [6] 95 % of control

CCNC1=C(C)C(=O)c2c(c(COC(N)=O)c3n2CC(NC(C)=O)C3O)C1=O (centres undefined)
inactive: endpoint: mean survival time, dose: 33.0 mg/kg/injection, schedule: Q01DX001 (ip), vehicle: carboxymethylcellulose (CMC) 98 % of control | endpoint: mean survival time, dose: 50.0 mg/kg/injection, schedule: Q01DX001 (ip), vehicle: carboxymethylcellulose (CMC) 98 % of control | endpoint: mean survival time, dose: 75.0 mg/kg/injection, schedule: Q01DX001 (ip), vehicle: carboxymethylcellulose (CMC) 102 % of control

C1CC2N=NC1C21CC1.[Cl][Cu][Cl]
inactive: endpoint: mean survival time, dose: 6.25 mg/kg/injection, schedule: Q04DX002 (ip), vehicle: saline with Tween-80 96 % of control | endpoint: mean survival time, dose: 12.5 mg/kg/injection, schedule: Q04DX002 (ip), vehicle: saline with Tween-80 108 % of control

Cc1c(Cl)cccc1NC(=O)Oc1ccc(Cl)cc1Cl
inactive: [4] 95 % of control | [5] 97 % of control

O=C(NO)c1ccncc1
inactive: endpoint: mean survival time, dose: 50.0 mg/kg/injection, schedule: Q01DX001 (ip), vehicle: saline 106 % of control | endpoint: mean survival time, dose: 100.0 mg/kg/injection, schedule: Q01DX001 (ip), vehicle: saline 103 % of control | [7] 102 % of control | [8] 91 % of control | endpoint: mean survival time, dose: 200.0 mg/kg/injection, schedule: Q01DX001 (ip), vehicle: saline 110 % of control | [9] 104 % of control | [10] 94 % of control | endpoint: mean survival time, dose: 400.0 mg/kg/injection, schedule: Q01DX001 (ip), vehicle: saline 97 % of control | [11] 107 % of control | [12] 94 % of control

C1CCC2[N-]CCCC2C1.C1CCC2[N-]CCCC2C1.[Cl][Pt+2][Cl] (centres undefined)
inactive: endpoint: median survival time, dose: 3.12 mg/kg/injection, schedule: Q04DX003 (ip), vehicle: saline 102 % of control | endpoint: median survival time, dose: 6.25 mg/kg/injection, schedule: Q04DX003 (ip), vehicle: saline 98 % of control | endpoint: median survival time, dose: 12.5 mg/kg/injection, schedule: Q04DX003 (ip), vehicle: saline 101 % of control | endpoint: median survival time, dose: 25.0 mg/kg/injection, schedule: Q04DX003 (ip), vehicle: saline 105 % of control | endpoint: median survival time, dose: 50.0 mg/kg/injection, schedule: Q04DX003 (ip), vehicle: saline 103 % of control | endpoint: median survival time, dose: 100.0 mg/kg/injection, schedule: Q04DX003 (ip), vehicle: saline 94 % of control | endpoint: median survival time, dose: 200.0 mg/kg/injection, schedule: Q04DX003 (ip), vehicle: saline 100 % of control

N=c1c2ncn(C3OC(CO)C(O)C3O)c2ncn1Cc1ccc([N+](=O)[O-])cc1 (centres undefined)
inactive: endpoint: mean survival time, dose: 100.0 mg/kg/injection, schedule: Q01DX001 (ip), vehicle: carboxymethylcellulose (CMC) 97 % of control | endpoint: mean survival time, dose: 200.0 mg/kg/injection, schedule: Q01DX001 (ip), vehicle: carboxymethylcellulose (CMC) 104 % of control | endpoint: mean survival time, dose: 400.0 mg/kg/injection, schedule: Q01DX001 (ip), vehicle: carboxymethylcellulose (CMC) 97 % of control

O=C(NC(CSCc1ccccc1)C(=O)O)OCc1ccccc1 (centres undefined)
inactive: [13] 98 % of control | [2] 94 % of control | [4] 93 % of control | [3] 103 % of control | [5] 101 % of control

NC(=O)c1nccnc1C(N)=O
inactive: [1] 101 % of control | endpoint: mean survival time, dose: 200.0 mg/kg/injection, schedule: Q01DX001 (ip), vehicle: Klucel (hydroxypropylcellulose) (HPC) 108 % of control | endpoint: mean survival time, dose: 400.0 mg/kg/injection, schedule: Q01DX001 (ip), vehicle: Klucel (hydroxypropylcellulose) (HPC) 101 % of control

CC(O)C(C)(C)CO (centres undefined)
inactive: [8] 88 % of control | [10] 88 % of control | [12] 93 % of control

N=c1sc2ccccc2n1CC(=O)O
inactive: [14] 100 % of control
